According to patent US20090143279A1 (priority 2007, published 2009):
Where two headings read alike, the source gives them in different places.

Columns and labels:
[1] = test system: mitochondrial membrane potential; assay type: cell-based, mouse
[2] = test system: reactive oxygen species; assay type: cell-based, mouse
[3] = test system: OXPHOS gene expression; assay type: cell-based, mouse
[4] = test system: nuOXPHOS transcripts; assay type: cell-based, mouse
[5] = test system: mtOXPHOS transcripts; assay type: cell-based, mouse
[6] = test system: cytochrome c; assay type: cell-based, mouse
[7] = test system: C2C12 myotubes
[8] = test system: cellular dehydrogenase activity
[9] = composite Z-score vs DMSO, Conc 20 μM
[10] = 20 μM, composite Z-score vs DMSO
[11] = Conc 20 μM, normalized score vs mock-treated (DMSO) wells
[12] = composite Z-score vs mock-treated (DMSO) wells, Conc 20 μM

Structure (SMILES) | ΔΨm [1, 9] | ROS [2, 9] | GE-HTS [3, 9] | nucOX [4, 9] | mitoOX [5, 9] | cyt c [6, 9] | Viability [7, 9] | MTT [8, 9] | ΔΨm [1, 10] | ROS [2, 10] | GE-HTS [3, 10] | nucOX [4, 10] | mitoOX [5, 10] | cyt c [6, 10] | Viability [7, 10] | MTT [8, 10] | further results
O=C(O)c1cccc(O)c1O [pyrocatechuic acid] | −1.204 | 1.147 | −0.386 | −0.324 | −0.367 | −0.018 | −1.076 | −1.800 | – | – | – | – | – | – | – | – | –
COC1=C[C@@H](C)[C@@H]2C[C@H]3OC(=O)C[C@H]4C(C)=C(OC)C(=O)[C@H]([C@@]2(C)C1=O)[C@@]34C [quassin, reference compound] | – | – | – | – | – | – | – | – | 0.033 | 0.925 | 0.095 | 0.205 | −0.168 | −0.233 | −0.688 | −0.400 | –
NC(=O)C1(O)C[C@@H](O)C(O)[C@H](O)C1 (stereo partly drawn) [quinamide] | – | – | – | – | – | – | – | – | – | – | – | – | – | – | – | – | ΔΨm (composite Z-score) [1, 11]: −0.518; ROS (composite Z-score) [2, 11]: 0.405; GE-HTS (composite Z-score) [3, 11]: −0.139; nucOX (composite Z-score) [4, 11]: −0.529; mitoOX (composite Z-score) [5, 11]: 0.735; cyt c (composite Z-score) [6, 11]: 0.359; Viability (composite Z-score) [7, 11]: −0.397; MTT (composite Z-score) [8, 11]: −1.034
CCOC(=O)[C@H](CCc1ccccc1)N[C@@H](C)C(=O)N1Cc2ccccc2C[C@H]1C(=O)O [quinapril] | – | – | – | – | – | – | – | – | −0.276 | 1.175 | −0.132 | −0.127 | −0.130 | 0.237 | 0.034 | −1.111 | –
C=C[C@H]1C[N@@]2CC[C@H]1C[C@@H]2[C@@H](O)c1ccnc2ccc(OC)cc12 [quinidine] | 1.187 | 1.326 | 0.849 | 0.956 | 0.501 | 1.286 | 0.916 | −0.233 | – | – | – | – | – | – | – | – | –
C=C[C@H]1CN2CC[C@H]1C[C@H]2[C@H](OC(=O)OCC)c1ccnc2ccc(OC)cc12 [quinine ethyl carbonate] | – | – | – | – | – | – | – | – | −0.661 | 0.401 | −1.190 | −1.003 | −1.297 | 0.822 | −0.167 | −0.071 | –
O=C(O)c1cccnc1C(=O)O [quinolinic acid] | – | – | – | – | – | – | – | – | −1.023 | 0.849 | −0.586 | −0.575 | −0.519 | −0.222 | −0.516 | −1.118 | –
COc1ccc(/C=C/c2cc(O)cc(O)c2)cc1 [resveratrol 4′-methyl ether] | – | – | – | – | – | – | – | – | – | – | – | – | – | – | – | – | ΔΨm [1, 12]: −0.389; ROS [2, 12]: 0.225; GE-HTS [3, 12]: −0.005; nucOX [4, 12]: −0.063; mitoOX [5, 12]: 0.065; cyt c [6, 12]: 0.142; Viability [7, 12]: −0.225; MTT [8, 12]: −1.056
COc1ccc(-c2coc3c(O)c(OC)ccc3c2=O)cc1 [retusin 7-methyl ether] | −0.603 | 0.088 | 0.788 | 0.765 | 0.631 | 0.412 | −0.245 | −0.627 | – | – | – | – | – | – | – | – | –
COc1ccc(-c2coc3c(OC)c(OC)ccc3c2=O)cc1 [retusin dimethyl ether] | – | – | – | – | – | – | – | – | – | – | – | – | – | – | – | – | ΔΨm (composite Z-score) [1]: 0.378; ROS (composite Z-score) [2]: 0.069; GE-HTS (composite Z-score) [3]: −0.135; nucOX (composite Z-score) [4]: −0.033; mitoOX (composite Z-score) [5]: −0.331; cyt c (composite Z-score) [6]: −0.199; Viability (composite Z-score) [7]: 0.317; MTT (composite Z-score) [8]: −1.263
COC1=C(O)C(=O)c2c(cc3oc(C(C)=O)c(O)c3c2O)C1=O [rhodocladonic acid] | 0.068 | 0.733 | 0.294 | 0.393 | 0.072 | 1.150 | −0.416 | −1.057 | – | – | – | – | – | – | – | – | –
Cc1c(O)c(C(=O)CC(C)C)c2oc3c(C(=O)CC(C)C)c(O)c(C)c(O)c3c2c1O [rhodomyrtoxin] | – | – | – | – | – | – | – | – | – | – | – | – | – | – | – | – | ΔΨm (composite Z-score) [1, 11]: 2.834; ROS (composite Z-score) [2, 11]: 0.397; GE-HTS (composite Z-score) [3, 11]: 0.357; nucOX (composite Z-score) [4, 11]: 0.412; mitoOX (composite Z-score) [5, 11]: 0.206; cyt c (composite Z-score) [6, 11]: −1.200; Viability (composite Z-score) [7, 11]: −0.636; MTT (composite Z-score) [8, 11]: 2.413
